Measurements: the supplement of paper PMC10307832

Key:
Test in all cases: relative viability (nuclei count vs DMSO), 5 days (fraction); higher = more cells survive
[1] = compound: CC[C@@H]1C(=O)N(C)c2cnc(Nc3ccc(C(=O)NC4CCN(C)CC4)cc3OC)nc2N1C1CCCC1 [BI-2536] + Nc1nc2[nH]cc(CCc3ccc(C(=O)N[C@@H](CCC(=O)O)C(=O)O)cc3)c2c(=O)[nH]1 [Pemetrexed] (partner 0.2 µM)
Summary of the method: (§1)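 After 5 days of treatment, lung cancer cells in 1536-well plates were fixed and stained in a single step (final 0.05% Triton X-100, 1% formaldehyde, 1 ug/ml Hoechst) and their nuclei counted on 4× images. Treatment had been applied by pin tool the day after seeding as one drug alone or as a fixed anchor-drug dose with five library-drug doses (not always all listed) in √10 steps. Relative viability is the nuclei count of treated wells divided by that of vehicle wells, and values are medians of duplicate plates.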

[2] = compound: CC[C@@H]1C(=O)N(C)c2cnc(Nc3ccc(C(=O)NC4CCN(C)CC4)cc3OC)nc2N1C1CCCC1 [BI-2536] + Cc1cc(Nc2cc(N3CCN(C)CC3)nc(Sc3ccc(NC(=O)C4CC4)cc3)n2)n[nH]1 [Tozasertib] (partner 0.1 µM)
Summary of the method: as §1

[3] = compound: CC1CC(=O)N(C2=CN=C(N=C2N1C3CCCC3)NC4=C(C=C(C=C4)C(=O)NC5CCN(CC5)C)OC)C [NPK76-II-72-1] + Cc1nc(Nc2ncc(C(=O)Nc3c(C)cccc3Cl)s2)cc(N2CCN(CCO)CC2)n1 [Dasatinib] (partner 0.075 µM)
Summary of the method: as §1

[4] = compound: CC[C@@H]1C(=O)N(C)c2cnc(Nc3ccc(C(=O)NC4CCN(C)CC4)cc3OC)nc2N1C1CCCC1 [BI-2536] + CC(C)C[C@H](NC(=O)[C@H](Cc1ccccc1)NC(=O)c1cnccn1)B(O)O [Bortezomib] (partner 0.002 µM)
Summary of the method: as §1

Cell Line	relative viability ([1]; first compound 0.01 µM)	relative viability ([1]; first compound 0.03162 µM)	relative viability ([1]; first compound 0.1 µM)	relative viability ([1]; first compound 0.3162 µM)	relative viability ([1]; first compound 1 µM)	relative viability ([2]; first compound 0.01 µM)	relative viability ([2]; first compound 0.03162 µM)	relative viability ([2]; first compound 0.1 µM)	relative viability ([2]; first compound 0.3162 µM)	relative viability ([2]; first compound 1 µM)	relative viability ([3]; first compound 0.01 µM)	relative viability ([3]; first compound 0.03162 µM)	relative viability ([3]; first compound 0.1 µM)	relative viability ([3]; first compound 0.3162 µM)	relative viability ([3]; first compound 1 µM)	relative viability ([4]; first compound 0.01 µM)	relative viability ([4]; first compound 0.03162 µM)	relative viability ([4]; first compound 0.1 µM)	relative viability ([4]; first compound 0.3162 µM)	relative viability ([4]; first compound 1 µM)
LCLC-97TM1	0.176	0.159	0.0973	0.0981	0.0935	0.236	0.184	0.176	0.182	0.178	0.896	0.917	0.822	0.785	0.8	0.658	0.408	0.0735	0.0639	0.0648
LCLC-103H	0.458	0.488	0.344	0.231	0.225	0.471	0.412	0.284	0.292	0.252	0.418	0.442	0.404	0.535	0.447	1.05	1.07	0.813	0.986	0.19
LOU-NH91	0.38	0.39	0.284	0.26	0.336	0.694	0.543	0.439	0.34	0.234	0.52	0.498	0.528	0.401	0.612	0.506	0.496	0.458	0.287	0.334
LU99A	0.225	0.193	0.165	0.152	0.143	0.272	0.235	0.248	0.281	0.227	0.404	0.505	0.51	0.442	0.674	1.04	1.12	0.244	0.19	0.193
LXF-289	0.932	0.812	0.503	0.0709	0.0711	0.216	0.214	0.206	0.0925	0.11	0.211	0.199	0.199	0.218	0.238	0.991	0.91	0.485	0.0621	0.0527
NCI-H23	0.619	0.756	0.201	0.128	0.182	0.331	0.458	0.182	0.142	0.141	0.752	0.771	0.565	0.859	0.776	1.14	0.885	0.182	0.117	0.139
NCI-H322M	0.607	0.542	0.639	0.454	0.363	0.517	0.451	0.571	0.445	0.377	0.268	0.241	0.249	0.234	0.256	1.32	1.22	1.34	1.34	0.311
NCI-H441	0.287	0.242	0.195	0.148	0.13	0.557	0.352	0.274	0.293	0.31	0.565	0.709	0.452	0.541	0.727	0.333	0.719	0.209	0.152	0.177
